Our source for the TGI and GI50 values is PubChem BioAssay (NCI).

“And” between values parts separate entries of the source, which are not always exact repeats. Identical values can stand only once.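 Tested at 5 concentrations; 48 h exposure; 96-well plates; endpoints linearly interpolated, else capped at highest concentration. Abbreviation: GI50, concentration required for 50% inhibition of growth. TGI: concentration producing complete growth inhibition.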 Where a SMILES comes first, the peptide text is derived from it. The star is where a group is joined. Boc = CC(C)(C)OC(=O)* A value given as a limit tells only on which side of the number the result lay.

Holding throughout (assay): growth of human tumour cells (NCI), 48 h
Assay [1] concerns PC-3 prostate.
In assay [2] the test system is HCT-15 colon.
The subject of assay [3] is SK-OV-3 ovarian.
The test system of assay [4] is MDA-MB-435.
For assay [5], the system named is KM12 colon.
In assay [6] the test system is MDA-MB-231 breast.
Assay [7] concerns NCI/ADR-RES ovarian.
In assay [8] the test system is UACC-62 melanoma.
For assay [9], the system named is SF-295 CNS.
The test system of assay [10] is A549 NSCLC.

As for `COc1ccc2cc3c4cc5c(cc4cc[n+]3cc2c1OC)OCO5`, the TGI is greater than 100 µM in [1]; greater than 100 µM in assay [2]; greater than 84.9 µM in [3]; 22.9 µM in assay [4]; 12.2 µM in assay [5]; greater than 100 µM in assay [6]. Further, the TGI in assay [7] was greater than 100 µM; in assay [8], 27.9 µM; in assay [9], greater than 93 µM; in assay [10], greater than 100 µM.
Regarding `CSc1cc(Cl)c(C)cc1S(=O)(=O)NC(=O)NNc1ccc(Cl)cc1`, the TGI in assay [1], in assay [2], in [3], in [4], in assay [5] and in assay [6] was greater than 100 µM throughout. Also, the TGI in [7], in [9] and in assay [10] was greater than 100 µM each time.
Consider `O=c1cc(N=P(c2ccccc2)(c2ccccc2)c2ccccc2)n(-c2ccccc2)c(=O)n1-c1ccccc1`, for which the TGI is 18.6 µM in [1]; greater than 100 µM in [2]; 76.1 µM in assay [3]; 57.2 µM in assay [4]; greater than 100 µM in [5]; 78.9 µM in assay [6]. In addition, the TGI in [7] is greater than 100 µM; in [8], 39.6 µM; in assay [9] it was 85.8 µM; in [10], 24.6 µM.
Regarding `CCOC(=O)c1c(-c2ccc(OC)cc2)c(C#N)c(=S)n(C2OC(COC(C)=O)C(OC(C)=O)C(OC(C)=O)C2OC(C)=O)c1C` (stereo not drawn), the TGI in [1], in [2], in assay [3], in assay [4], in assay [5] and in assay [6] was greater than 100 µM in each case. Besides, the TGI in [7], in [8], in [9] and in assay [10] was greater than 100 µM in each case.
On to `CC(C)(C)OC(=O)NCC(=O)NCC(=O)NCC(=O)NCC(=O)O` (Boc-GGGG-OH), for which the TGI in assay [1], in [2], in assay [3], in assay [4], in assay [5] and in assay [6] was greater than 100 µM in each case. Moreover, the TGI in [7], in assay [8], in [9] and in assay [10] was greater than 100 µM throughout.
For `COc1cc2c(cc1-c1c(C)noc1C)cc(C)c(=O)n2Cc1ccccn1`, the GI50 in assay [1] was 3.47 µM; in assay [2], 0.694 µM; in [3], 0.554 µM; in assay [4] it was 1.25 µM; in [5], 7.77 µM; in assay [6], 0.809 µM. Besides, the GI50 in [7] was 1.34 µM; in assay [8], 0.407 µM; in assay [9], 2.3 µM; in assay [10] it was 1.76 µM. Further, the TGI in assay [1] was greater than 100 µM; in assay [2], greater than 100 µM; in assay [3], 7.82 µM; in assay [4] it was 4.33 µM; in [5], greater than 100 µM; in assay [6], greater than 100 µM. The TGI in assay [7] is greater than 100 µM; in assay [8], 15 µM; in assay [9], greater than 100 µM; in [10], greater than 100 µM.
In the case of `CN(C)C(=S)S`, the TGI in [1], in assay [2], in assay [3], in assay [4], in [5] and in [6] was greater than 100 µM in each case. In addition, the TGI in [7], in [8], in assay [9] and in assay [10] was greater than 100 µM in each case.
For the compound `O=C(c1cc2ccccc2cc1O)N1CCCCC1`, the TGI in [1], in [2], in assay [3], in assay [4], in assay [5] and in [6] was greater than 100 µM throughout. Moreover, the values for the TGI in assay [7], in assay [8] and in assay [9] were 94.3 µM, greater than 100 µM and greater than 100 µM, respectively.
As for `O=C1c2cc3c(cc2CC1Br)CCC3` (stereo not drawn), the TGI in assay [1] worked out at 11.7 µM; in [2], 4.82 µM; in [3], 15.9 µM; in [4], 4.23 µM; in assay [5], 22.1 µM; in assay [6], 13.9 µM. The TGI was 19.2 µM in assay [7], 11.7 µM in assay [8], 11.5 µM in assay [9] and 38.7 µM in assay [10].
On to `Nc1c(-c2cccc3ccccc23)c2ccc([N+](=O)[O-])cc2c(=O)n1-c1nc2ccccc2s1`, for which the TGI is greater than 35.3 µM in [1]; greater than 48 µM in assay [2]; 14.8 µM in [3]; greater than 100 µM in assay [4]; 24.4 µM in [5]; greater than 47.5 µM in [6]. Besides, the TGI in assay [7] is 10.5 µM; in [8], greater than 100 µM; in assay [9], greater than 34.2 µM; in [10], greater than 53.4 µM.
Take `CC(C)(C)NC(=O)/C(=C\Sc1ccccc1)c1ccc2c(c1)OCO2`: the TGI was 73.7 µM in assay [1]; greater than 100 µM in [2]; greater than 100 µM in [3]; 47.7 µM in assay [4]; greater than 100 µM in [5]; 52.8 µM in [6]. Further, the TGI in assay [7] was 97.5 µM; in assay [8], 57.9 µM; in assay [9] it was greater than 100 µM; in [10], greater than 100 µM.
`Brc1cccc(Nc2nc(-c3cccs3)nc3ccc(Br)cc23)c1`: the TGI in [1] was greater than 100 µM; in assay [2], greater than 100 µM; in [3] it was greater than 100 µM; in assay [4], 37.2 µM; in [5], 46.3 µM; in assay [6] it was 64.6 µM. Also, the TGI was greater than 100 µM in assay [7], 35.8 µM in assay [8], 45.1 µM in [9] and greater than 100 µM in assay [10].
For `COc1cc(NS(C)(=O)=O)ccc1N1Cc2cnc3ccc4[nH]c(C)cc1c4c23`, the TGI was greater than 100 µM in assay [1]; greater than 100 µM in [2]; greater than 100 µM in [3]; 50.1 µM in assay [4]; greater than 100 µM in assay [5]; greater than 100 µM in [6]. Further, the TGI in assay [7], in assay [8], in assay [9] and in assay [10] was greater than 100 µM each time.
As for `Clc1ccc(-c2nn3c(-c4ccncc4)nnc3s2)cc1`, the TGI in assay [1] is greater than 100 µM; in assay [2] it was 90.7 µM; in [3] it was 84.9 µM; in assay [4], greater than 100 µM; in assay [5], greater than 100 µM; in assay [6], greater than 100 µM. The TGI in [7], in assay [8], in [9] and in assay [10] was greater than 100 µM each time.
As to `C/C(CC1C2CCCC1C2)=N\NC(N)=O` (stereo not drawn), the TGI in assay [1], in assay [2], in assay [3], in assay [4], in [5] and in [6] was greater than 100 µM throughout. The TGI in assay [7], in [8], in assay [9] and in assay [10] was greater than 100 µM throughout.
Consider `C/C=C/C=C/c1nc(C#N)c(N)o1`, for which the TGI in assay [1], in [2], in assay [3], in assay [4], in assay [6] and in assay [7] was greater than 100 µM throughout. Further, the TGI in assay [8], in assay [9] and in assay [10] was greater than 100 µM in each case.
As to `O=c1c2ccccc2nc2[nH][nH]c(=S)n12`, the TGI in assay [1], in assay [2], in assay [3], in assay [4], in [5] and in assay [6] was greater than 100 µM each time. Moreover, the TGI in [7], in assay [8], in assay [9] and in assay [10] was greater than 100 µM in each case.
As to `O=[N+]([O-])/C(C(Cl)=C(Cl)Cl)=C(\Nc1cccc2cccnc12)SCc1ccccc1`, the TGI in [1] is 36.5 µM; in assay [2] it was 43.4 µM; in [3], 43.4 µM; in [4], 37.7 µM; in assay [5], 50.4 µM; in assay [6], greater than 100 µM. The TGI was 51.7 µM in assay [7], 63.7 µM in assay [8], 37.4 µM in assay [9] and 88.4 µM in [10].
Consider `O=C1CN2C(c3ccccc3)=NN(c3ccc([N+](=O)[O-])cc3)C2(c2ccccc2)c2cc(Cl)ccc2N1CC1CC1` (stereo not drawn), for which the TGI in assay [1], in [2], in assay [3], in assay [4], in assay [5] and in assay [6] was greater than 100 µM each time. The TGI in [7], in [8], in assay [9] and in assay [10] was greater than 100 µM each time.
Consider `CCOc1cc(C2CC(c3ccc(NS(=O)(=O)c4cc([N+](=O)[O-])ccc4C)cc3)=NN2C(=O)c2ccccc2)ccc1O` (stereo not drawn), for which the TGI in assay [1] was greater than 100 µM; in assay [2] it was greater than 100 µM; in assay [3], 54.5 µM; in assay [4] it was greater than 100 µM; in [5], greater than 100 µM; in assay [6], 48.1 µM. Besides, the results for the TGI in assay [7], in [9] and in assay [10] were greater than 100 µM, 87.7 µM and greater than 100 µM, respectively.
As to `c1ccc2sc(SCSc3nc4ccccc4s3)nc2c1`, the TGI in assay [1], in assay [2], in assay [4], in assay [5], in assay [6] and in assay [7] was greater than 100 µM in each case. The TGI in assay [8], in assay [9] and in [10] was greater than 100 µM throughout.
In the case of `CC[C@H]1CN2CCc3cc(OC)c(OC)cc3[C@@H]2C[C@@H]1C[C@H]1NCCc2cc(OC)c(OC)cc21`, the TGI in assay [1] was 0.103 µM; in assay [2], 0.76 µM and 1.27 µM; in assay [3], 0.223 µM and 0.991 µM; in assay [4] it was 0.0442 µM; in assay [5] it was 0.138 µM; in [6], 0.0458 µM. Also, the TGI in assay [7] is 0.502 µM; in assay [8] it was 0.206 µM and 0.0957 µM.
Turning to `COc1ccc(CC(O)CN2CCOCC2)cc1` (stereo not drawn), the TGI in assay [1], in [2], in [4], in assay [5], in assay [6] and in [7] was greater than 100 µM each time. For the same compound, the TGI in assay [8], in [9] and in [10] was greater than 100 µM throughout.
Turning to `CN(C)Cc1cc(C(=O)/C=C/c2ccc(O)cc2)cc(CN(C)C)c1O`, the TGI in [1] was greater than 100 µM; in [2], greater than 100 µM; in [4] it was greater than 100 µM; in assay [5] it was greater than 100 µM; in assay [6], 79 µM; in assay [7], greater than 100 µM. The TGI in assay [8], in assay [9] and in [10] was greater than 100 µM each time.
For the compound `O=C1C[C@H](Sc2ccccc2)C2(OCCO2)[C@@H](Sc2ccccc2)C1`, the TGI in assay [1] is 13.8 µM; in [3] it was 24.7 µM; in assay [4], 7.97 µM; in [5] it was 7.36 µM; in assay [6], 5.78 µM; in [7], 4.92 µM. Moreover, the TGI stood at 4.63 µM in assay [8], 17.9 µM in assay [9] and 28 µM in assay [10].
`CC(O)C1CC1(CO)CNc1cc(Cl)nc(N)n1` (stereo not drawn): the TGI in assay [1], in assay [2], in assay [3], in [4], in assay [5] and in assay [6] was greater than 100 µM in each case. Moreover, the TGI in [7], in assay [9] and in assay [10] was greater than 100 µM in each case.
As to `Cc1c2c(n(CCc3ccc(Cl)cc3)c1C)NN=C(C#N)S2(=O)=O`, the TGI in assay [1], in [2], in assay [3], in assay [4], in assay [5] and in assay [6] was greater than 100 µM throughout. In addition, the TGI in [7], in [8] and in assay [10] was greater than 100 µM each time.
